Reference: patent US20260285850A1, “SUBSTITUTED OXAZOLIDINONES AND IMIDAZOLINONES AS HERBICIDES” (FMC CORPORATION, priority 2023, published 2026)

Columns and labels:
Assay type in all cases: in vivo
[1] = tested on: barnyardgrass (Echinochloa crus-galli); test: Test A preemergence soil spray, visual injury rating 0-100; details: 10 days, 0 = no effect, 100 = complete control
In short: (§1)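 Compound in a non-phytotoxic, surfactant-containing solvent is applied either as a directed soil spray before seedlings emerge or onto emerged plants 2-10 cm tall; pots hold a loam-sand blend. Plants grow 10 days under greenhouse conditions and are rated by eye against untreated controls (0 no effect, 100 complete control).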

[2] = tested on: blackgrass (Alopecurus myosuroides); test: as above; details: 10 days, 0 = no effect, 100 = complete control
In short: as §1

corn (Zea mays) [3] = test: as above; details: 10 days, 0 = no effect, 100 = complete control
In short: as §1

[4] = tested on: green foxtail (Setaria viridis); test: as above; details: 10 days, 0 = no effect, 100 = complete control
In short: as §1

kochia (Bassia scoparia) [5] = test: as above; details: 10 days, 0 = no effect, 100 = complete control
In short: as §1

[6] = tested on: oat, wild (wild oat, Avena fatua); test: as above; details: 10 days, 0 = no effect, 100 = complete control
In short: as §1

[7] = tested on: palmer (palmer amaranth, palmer pigweed, Amaranthus palmeri); test: as above; details: 10 days, 0 = no effect, 100 = complete control
In short: as §1

[8] = tested on: ragweed (common ragweed, Ambrosia artemisiifolia); test: as above; details: 10 days, 0 = no effect, 100 = complete control
In short: as §1

[9] = tested on: ryegrass, Italian (italian ryegrass, Lolium multiflorum); test: as above; details: 10 days, 0 = no effect, 100 = complete control
In short: as §1

soybean (Glycine max) [10] = test: as above; details: 10 days, 0 = no effect, 100 = complete control
In short: as §1

[11] = tested on: wheat (Triticum aestivum); test: as above; details: 10 days, 0 = no effect, 100 = complete control
In short: as §1

[12] = tested on: barnyardgrass (Echinochloa crus-galli); test: Test A postemergence application, visual injury rating 0-100; details: 10 days
In short: as §1

[13] = tested on: blackgrass (Alopecurus myosuroides); test: as above; details: 10 days
In short: as §1

corn (Zea mays) [14] = test: as above; details: 10 days
In short: as §1

[15] = tested on: galium (catchweed bedstraw, Galium aparine); test: as above; details: 10 days
In short: as §1

[16] = tested on: green foxtail (Setaria viridis); test: as above; details: 10 days
In short: as §1

[17] = tested on: horseweed (Erigeron canadensis); test: as above; details: 10 days
In short: as §1

kochia (Bassia scoparia) [18] = test: as above; details: 10 days
In short: as §1

[19] = tested on: oat, wild (wild oat, Avena fatua); test: as above; details: 10 days
In short: as §1

[20] = tested on: palmer (palmer amaranth, palmer pigweed, Amaranthus palmeri); test: as above; details: 10 days
In short: as §1

[21] = tested on: ragweed (common ragweed, Ambrosia artemisiifolia); test: as above; details: 10 days
In short: as §1

[22] = tested on: ryegrass, Italian (italian ryegrass, Lolium multiflorum); test: as above; details: 10 days
In short: as §1

soybean (Glycine max) [23] = test: as above; details: 10 days
In short: as §1

[24] = tested on: wheat (Triticum aestivum); test: as above; details: 10 days
In short: as §1

[25] = tested on: barnyardgrass (Echinochloa crusgalli); test: Test B flooded paddy test, visual plant response rating 0-100; details: 250 g ai/ha, Flood, applied to paddy water, evaluated after 13 days
In short: (§2)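 In this flooded assay, 2-leaf seedlings received compound through the water layer, kept at 3 cm over the soil. Plants were held 13 days in a greenhouse and then visually compared with control pots.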

[26] = tested on: ducksalad (Heteranthera limosa); test: as above; details: 250 g ai/ha, Flood, applied to paddy water, evaluated after 13 days
In short: as §2

rice (Oryza sativa) = test: as above; details: 250 g ai/ha, Flood, applied to paddy water, evaluated after 13 days
In short: as §2

[27] = tested on: sedge, umbrella (small-flower umbrella sedge, Cyperus difformis); test: as above; details: 250 g ai/ha, Flood, applied to paddy water, evaluated after 13 days
In short: as §2

[28] = 31 g ai/ha, postemergence, 0 = no effect, 100 = complete control
[29] = Postemergence, 125 g ai/ha, 0 is no effect, 100 is complete control

CSCCOC(=O)C1=CCC(NC(=O)C2(C)CN(c3cc(F)cc(F)c3)C(=O)O2)C1 (stereo not shown) [Compound 23]
20: Oat, Wild plant response rating (0-100) ([6]; 31 g ai/ha)
10: Soybean plant response rating (0-100) (soybean (Glycine max) [10]; 31 g ai/ha)
100: Barnyardgrass plant response rating (0 to 100 scale) ([1]; 125 g ai/ha) | Foxtail, Green plant response rating (0 to 100 scale) ([4]; 125 g ai/ha) | Barnyardgrass plant response rating (0-100) [12, 28] | Barnyardgrass plant response rating (0 to 100 scale) [12, 29] | Blackgrass plant response rating (0 to 100 scale) [13, 29] | Corn plant response rating (0-100) (corn (Zea mays) [14]; [28]) | Corn plant response rating (0 to 100 scale) (corn (Zea mays) [14]; [29]) | Oat, Wild plant response rating (0 to 100 scale) [19, 29]
86: Plant response rating, Sedge, Umbrella (0 to 100 scale, 0 is no effect and 100 is complete control) [27]
80: Blackgrass plant response rating (0-100) ([2]; 31 g ai/ha) | Corn plant response rating (0 to 100 scale) (corn (Zea mays) [3]; 125 g ai/ha) | Ryegrass, Italian plant response rating (0-100) ([9]; 31 g ai/ha) | Wheat plant response rating (0-100) ([11]; 31 g ai/ha) | Galium plant response rating (0-100) [15, 28] | Horseweed plant response rating (0-100) [17, 28] | Kochia plant response rating (0-100) (kochia (Bassia scoparia) [18]; [28]) | Amaranth, Palmer plant response rating (0-100) [20, 28] | Ryegrass, Italian plant response rating (0-100) [22, 28] | Soybean plant response rating (0-100) (soybean (Glycine max) [23]; [28])
95: Plant response rating, Barnyardgrass (0 to 100 scale, 0 is no effect and 100 is complete control) [25]
70: Foxtail, Green plant response rating (0-100) ([4]; 31 g ai/ha) | Ragweed plant response rating (0 to 100 scale) ([8]; 125 g ai/ha) | Soybean plant response rating (0 to 100 scale) (soybean (Glycine max) [10]; 125 g ai/ha) | Ragweed plant response rating (0 to 100 scale) [21, 29] | Ryegrass, Italian plant response rating (0 to 100 scale) [22, 29] | Plant response rating, Ducksalad (0 to 100 scale, 0 is no effect and 100 is complete control) [26]
90: Blackgrass plant response rating (0 to 100 scale) ([2]; 125 g ai/ha) | Kochia plant response rating (0 to 100 scale) (kochia (Bassia scoparia) [5]; 125 g ai/ha) | Amaranth, Palmer plant response rating (0 to 100 scale) ([7]; 125 g ai/ha) | Ryegrass, Italian plant response rating (0 to 100 scale) ([9]; 125 g ai/ha) | Wheat plant response rating (0 to 100 scale) ([11]; 125 g ai/ha) | Blackgrass plant response rating (0-100) [13, 28] | Galium plant response rating (0 to 100 scale) [15, 29] | Foxtail, Green plant response rating (0-100) [16, 28] | Foxtail, Green plant response rating (0 to 100 scale) [16, 29] | Horseweed plant response rating (0 to 100 scale) [17, 29] | Kochia plant response rating (0 to 100 scale) (kochia (Bassia scoparia) [18]; [29]) | Oat, Wild plant response rating (0-100) [19, 28] | Amaranth, Palmer / Pigweed, Palmer plant response rating (0 to 100 scale) [20, 29] | Soybean plant response rating (0 to 100 scale) (soybean (Glycine max) [23]; [29]) | Wheat plant response rating (0-100) [24, 28] | Wheat plant response rating (0 to 100 scale) [24, 29]
85: Plant response rating, Rice (0 to 100 scale, 0 is no effect and 100 is complete control) (rice (Oryza sativa))
60: Barnyardgrass plant response rating (0-100) ([1]; 31 g ai/ha) | Oat, Wild plant response rating (0 to 100 scale) ([6]; 125 g ai/ha) | Ragweed plant response rating (0-100) [21, 28]
0: Kochia plant response rating (0-100) (kochia (Bassia scoparia) [5]; 31 g ai/ha) | Ragweed plant response rating (0-100) ([8]; 31 g ai/ha)
30: Corn plant response rating (0-100) (corn (Zea mays) [3]; 31 g ai/ha) | Amaranth, Palmer plant response rating (0-100) ([7]; 31 g ai/ha)
